Source: US9938236B2, “Antiviral agents against HBV infection” (DREXEL UNIVERSITY, priority 2012, dated 2018)

Columns and labels:
HBV [1] = test: Antiviral activity in HepDES19 cells (core-associated HBV DNA, Southern blot hybridization); type: cell-based; settings: Hepatitis B virus, 144 h, Table 33, scaffold (XIV) drawing 940, 6 days
Procedure: Two days after seeding, the cells were mock-treated or treated with a serial dilution of compounds of the disclosure, ranging from 10 μM to 0.018 μM, for 6 days in the absence of tetracycline. Upon the completion of treatment, cells were lysed by adding into each well of the 12-well plates 0.5 ml of lysis buffer containing 10 mM Tris-HCl (pH 8.0), 1 mM EDTA, 1% NP40 and 2% sucrose and incubating at 37° C. for 10 minutes. Cell debris and nuclei were removed by centrifugation and the supernatant was mixed with 130 μl of 35% polyethylene glycol (PEG) 8000 containing 1.5 M NaCl. After 1 hour incubation in ice, viral nucleocapsids were pelleted by centrifugation at 6,000×g for 5 min at 4° C., followed by 1 hour digestion at 37° C. in 400 μl of digestion buffer containing 0.5 mg/ml pronase (Calbiochem), 0.5% SDS, 150 mM NaCl, 25 mM Tris-HCl (pH 8.0) and 10 mM EDTA. The digestion mixture was extracted twice with phenol and DNA was precipitated with ethanol, dissolved in TE buffer (10 mM Tris-HC 1, pH 8.0; 0.1 mM EDTA). One half of the DNA sample from each well was resolved by electrophoresis into a 1.5% agarose gel. The gel was then subjected to denaturation in a solution containing 0.5 M NaOH and 1.5 M NaCl, followed by neutralization in a buffer containing 1 M Tris-HCl (pH7.4) and 1.5 M NaCl. DNA was then blotted onto Hybond-XL membrane (GE Health care) in 20×SSC buffer.

HBV [2] = test: Antiviral activity in AML12HBV10 cells (HBV DNA dot-blot hybridization); type: cell-based; settings: Hepatitis B virus, Table 33, scaffold (XIV) drawing 940, 48 hours
Procedure: The antiviral efficacy of the compounds of the disclosure, as presented in Tables 21 through 39 were determined in AML12HBV10 cells. AML12HBV10 is an immortalized murine hepatocyte (AML12)-derived stable cell line that supports robust HBV replication in a tetracycline inducible manner (Xu et al.). The cells were seeded into 96 well plates at a density of 2×10^4 cells per well and cultured in DMEM/F12 media with 10% fetal bovine serum in the absence of tetracycline to allow pgRNA transcription and HBV DNA replication. One day after seeding, cells were left untreated or treated with a serial dilution of testing compounds, ranging from 50 μM to 0.39 μM, for 48 hours. Cells were then lysed by adding into each well of 100 μl lysis buffer containing 10 mM Tris-HCl (pH 7.6), 1 mM EDTA, 100 mM NaCl and 1% NP-40 and incubated at 37° C. for 30 minutes. Half amount (50 μl) of cell lysate from each well was combined with equal volume of denaturing solution containing 0.5N NaOH and 1.5M NaCl. After 5 minute incubation, 100 μl of neutralization solution (1M Tris-HCl, pH 7.4, 1.5M NaCl) was added into each well. The denatured cell lysates (totally 200 μl) were applied onto Nylon membrane using 96-well dot-blot manifold (Biorad). HBV DNA in the cell lysates were determined by dot-blot hybridization with alpha-^32P-UTP-labelled riboprobe specific for HBV minus strand DNA.

| SMILES | EC50 (HBV [1]) | EC50 (HBV [2]) |
| --- | --- | --- |
| Cc1ccc(S(=O)(=O)N[C@H](C)C(C)C)cc1C(=O)Nc1ccc(F)c(F)c1 [XIV: A=H, B=Me, C=H, D=H, (R)-N-(3,4-Difluorophenyl)-2-methyl-5-(N-(3-methylbutan-2-yl)sulfamoyl)benzamide] | < 1000 nM | < 1000 nM |
| COc1ccc(S(=O)(=O)N[C@H](C)C(C)C)cc1C(=O)Nc1ccc(F)c(F)c1 [XIV: A=H, B=OMe, C=H, D=H, (R)-N-(3,4-Difluorophenyl)-2-methoxy-5-(N-(3-methylbutan-2-yl)sulfamoyl)benzamide] | < 1000 nM | < 1000 nM |
| CC(C)[C@@H](C)NS(=O)(=O)c1cc(C(=O)Nc2ccc(F)c(F)c2)c(F)cc1F [XIV: A=H, B=F, C=H, D=F, (R)-N-(3,4-Difluorophenyl)-2,4-difluoro-5-(N-(3-methylbutan-2-yl)sulfamoyl)benzamide] |  | 1000 to 5000 nM |
| CC(C)[C@@H](C)NS(=O)(=O)c1ccc(Cl)c(C(=O)Nc2ccc(F)c(F)c2)c1 [XIV: A=H, B=Cl, C=H, D=H, (R)-2-chloro-N-(3,4-Difluorophenyl)-5-(N-(3-methylbutan-2-yl)sulfamoyl)benzamide] |  | < 1000 nM |
